Drawing on US12011444B2, “N-substituted indole derivatives as PGE2 receptor modulators” (Idorsia Pharmaceuticals Ltd, priority 2015, dated 2024), this text covers IC50 for 34 compounds.

SMILES strings stand for the structures.

For one assay, the target named is PTRGER4 (EP4) (Homo sapiens (Human), UniProt P35408). In words: hEP4 b-arrestin assay (PathHunter HEK 293 PTGER4 b-arrestin cells). The conditions noted are these: antagonistic activity on hEP4; mean where measured multiple times. The assay is classed as cell-based. A digest of the protocol:
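Antagonist mode: compound is given 15 min at 37 °C, then 20 nM (final) PGE2 for 120 min, in HEK293 cells stably expressing EP4 fused to ProLink and β-arrestin 2 fused to EA. Recruitment read as β-gal luminescence after 1 h reagent at room temperature, as percent of DMSO control.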

The next assay deals with PTGER2 (EP2) (Homo sapiens (Human), UniProt P43116). Briefly: hEP2 b-arrestin assay (PathHunter HEK 293 PTGER2 b-arrestin cells). The class given is cell-based. The conditions noted are these: antagonistic activity on hEP2; mean where measured multiple times. A digest of the protocol:
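Readout is β-galactosidase complementation luminescence, expressed as percent of DMSO control (duplicates). PathHunter HEK293 EP2/β-arrestin 2 cells, grown 24 h, received compound for 15 min at 37 °C before a 120 min challenge with PGE2 at 5 μM final, followed by 1 h detection at room temperature.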

PTRGER4 (EP4), sequence (P35408 whole entry, looked up, the tested form may be a part): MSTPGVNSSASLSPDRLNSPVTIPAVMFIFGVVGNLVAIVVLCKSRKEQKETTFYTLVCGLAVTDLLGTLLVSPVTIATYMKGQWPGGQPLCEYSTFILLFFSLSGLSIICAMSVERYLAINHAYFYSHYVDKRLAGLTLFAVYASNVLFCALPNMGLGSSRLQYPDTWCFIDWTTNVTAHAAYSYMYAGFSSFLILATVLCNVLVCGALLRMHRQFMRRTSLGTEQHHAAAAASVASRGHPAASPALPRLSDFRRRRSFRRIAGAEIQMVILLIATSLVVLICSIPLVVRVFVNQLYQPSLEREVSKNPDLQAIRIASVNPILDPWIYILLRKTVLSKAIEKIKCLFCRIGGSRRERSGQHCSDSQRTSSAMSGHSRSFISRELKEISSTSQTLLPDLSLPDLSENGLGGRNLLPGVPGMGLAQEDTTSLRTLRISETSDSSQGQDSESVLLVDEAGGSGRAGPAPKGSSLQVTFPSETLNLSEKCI
PTGER2 (EP2), sequence (P43116 whole entry): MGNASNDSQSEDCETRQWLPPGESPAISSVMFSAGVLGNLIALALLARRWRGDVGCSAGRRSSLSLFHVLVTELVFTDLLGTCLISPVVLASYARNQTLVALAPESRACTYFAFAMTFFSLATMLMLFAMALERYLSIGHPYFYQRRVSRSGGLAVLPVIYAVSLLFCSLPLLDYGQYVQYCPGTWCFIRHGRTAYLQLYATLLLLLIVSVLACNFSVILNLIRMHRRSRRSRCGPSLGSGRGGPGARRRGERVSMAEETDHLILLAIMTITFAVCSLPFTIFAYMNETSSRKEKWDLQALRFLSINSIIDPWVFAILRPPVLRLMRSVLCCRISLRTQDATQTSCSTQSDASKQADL

A word on the IC50: it is the concentration that gives 50% inhibition. As for `COc1cccc2c1cc(C)n2CCNc1cc(-c2ccc(-c3nc(N)sc3C)cc2)ncn1` [compound 311, {6-[4-(2-Amino-5-methyl-thiazol-4-yl)-phenyl]-pyrimidin-4-yl}-[2-(4-methoxy-2-methyl-indol-1-yl)-ethyl]-amine], the concentration for half-maximal inhibition (IC50) against PTRGER4 (EP4) turned out to be 232 nM; on PTGER2 (EP2), 4 nM.
Consider `COc1cc(F)cc2c1cc(C)n2CCNc1cc(-c2ccc(-c3noc(=O)[nH]3)cc2)ncn1` [compound 312, 3-(4-{6-[2-(6-Fluoro-4-methoxy-2-methyl-indol-1-yl)-ethylamino]-pyrimidin-4-yl}-phenyl)-4H-[1,2,4]oxadiazol-5-one], for which the IC50 against PTRGER4 (EP4) turned out to be 85 nM; on PTGER2 (EP2), 44 nM.
The like results for `COc1ccc(F)c2c1cc(C)n2CCNc1cc(-c2ccc(-c3noc(=O)[nH]3)cc2)ncn1` [compound 313, 3-(4-{6-[2-(7-Fluoro-4-methoxy-2-methyl-indol-1-yl)-ethylamino]-pyrimidin-4-yl}-phenyl)-4H-[1,2,4]oxadiazol-5-one] were, in that order, 110 nM and 7 nM.
In the same order, the values of `CCCN1Cc2cc(-c3cc(NCCn4c(C)cc5c(OC)cccc54)ncn3)ccc2C1=O` [compound 315, 5-{6-[2-(4-Methoxy-2-methyl-indol-1-yl)-ethylamino]-pyrimidin-4-yl}-2-propyl-2,3-dihydro-isoindol-1-one] are 268 nM and 46 nM.
In the same order, the values of `Cc1ccc(F)c2c1cc(C)n2CCNc1cc(-c2ccc(N3CCCS3(=O)=O)cc2)ncn1` [compound 316] are 906 nM and 245 nM.
For the compound `COc1cc(F)cc2c1cc(C)n2CCNc1cc(-c2ccc(N3CCCC3=O)cc2)ncn1` [compound 317], the 50% inhibitory concentration (IC50) at PTRGER4 (EP4) amounted to 873 nM; at PTGER2 (EP2) it was 320 nM.
Regarding `COc1ccc(F)c2c1cc(C)n2CCNc1cc(-c2ccc(N3CCCC3=O)cc2)ncn1` [compound 318], the half-maximal inhibitory concentration (IC50) was 894 nM on PTRGER4 (EP4) and 338 nM on PTGER2 (EP2).
The like results for `CCN1Cc2cc(-c3cc(NCCn4c(C)cc5c(OC)ccc(F)c54)ncn3)ccc2C1=O` [compound 320] were, in that order, 345 nM and 68 nM.
Take `COc1ccc(F)c2c1cc(C)n2CCNc1cc(-c2ccc(-c3csc(C)n3)cc2)ncn1` [compound 321]: the IC50 at PTRGER4 (EP4) stood at 439 nM; at PTGER2 (EP2), 72 nM.
For the compound `COc1ccc(F)c2c1cc(C)n2CCNc1cc(-c2ccc(C(=O)O)c3[nH]ccc23)ncn1` [compound 323, 4-{6-[2-(7-Fluoro-4-methoxy-2-methyl-indol-1-yl)-ethylamino]-pyrimidin-4-yl}-1H-indole-7-carboxylic acid], the values for the IC50 against PTRGER4 (EP4) and against PTGER2 (EP2) were 708 nM and 18 nM, respectively.
The like results for `CNc1nnc(-c2ccc(-c3cc(NCCn4c(C)cc5c(C)ccc(F)c54)ncn3)cc2)s1` [compound 324, [2-(7-Fluoro-2,4-dimethyl-indol-1-yl)-ethyl]-{6-[4-(5-methylamino-[1,3,4]thiadiazol-2-yl)-phenyl]-pyrimidin-4-yl}-amine] were, in that order, 23 nM and 4 nM.
In the case of `COc1ccc(F)c2c1cc(C)n2CCNc1cc(-c2ccc3c(c2)CCO3)ncn1` [compound 325], the half-inhibitory concentration (IC50) against PTRGER4 (EP4) stood at 968 nM; at PTGER2 (EP2), 159 nM.
Consider `CCc1cccc2c1cc(C)n2CCNc1cc(-c2ccc(C(=O)O)c(CC(C)C)c2)ncn1` [compound 327], for which the figures for the concentration for half-maximal inhibition (IC50) at PTRGER4 (EP4) and at PTGER2 (EP2) were 629 nM and 482 nM, respectively.
For `Cc1ccc(C)c2c1cc(C)n2CCNc1cc(-c2ccc(C(=O)O)c(CC(C)C)c2)ncn1` [compound 328, 2-Isobutyl-4-{6-[2-(2,4,7-trimethyl-indol-1-yl)-ethylamino]-pyrimidin-4-yl}-benzoic acid], the values for the IC50 against PTRGER4 (EP4) and at PTGER2 (EP2) were 570 nM and 62 nM, respectively.
In the case of `Cc1cccc2c1cc(C)n2CCNc1cc(-c2ccc(C(=O)O)c(CCC(C)C)c2)ncn1` [compound 329, 4-{6-[2-(2,4-Dimethyl-indol-1-yl)-ethylamino]-pyrimidin-4-yl}-2-(3-methyl-butyl)-benzoic acid], the IC50 against PTRGER4 (EP4) is 653 nM; against PTGER2 (EP2), 27 nM.
In the case of `CSc1cc(-c2cc(NCCn3c(C)cc4c(C)c(F)cc(Cl)c43)ncn2)cc(F)c1C(=O)O` [compound 330], the figures for the 50% inhibitory concentration (IC50) against PTRGER4 (EP4) and against PTGER2 (EP2) were 667 nM and 102 nM, respectively.
For the compound `CSc1cc(-c2cc(NCCn3c(C)cc4c(C)c(F)cc(Cl)c43)ncn2)cc(Cl)c1C(=O)O` [compound 331], the IC50 on PTRGER4 (EP4) is 829 nM; against PTGER2 (EP2), 98 nM.
For `Cc1cc2c(F)ccc(F)c2n1CCNc1cc(-c2ccc(C(=O)O)c(CC(C)C)c2)ncn1` [compound 332, 4-{6-[2-(4,7-Difluoro-2-methyl-indol-1-yl)-ethylamino]-pyrimidin-4-yl}-2-isobutyl-benzoic acid], the IC50 on PTRGER4 (EP4) worked out at 588 nM; against PTGER2 (EP2) it was 5 nM.
As to `Cc1cc2cc(F)cc(F)c2n1CCNc1cc(-c2ccc(C(=O)O)c(CC(C)C)c2)ncn1` [compound 333, 4-{6-[2-(5,7-Difluoro-2-methyl-indol-1-yl)-ethylamino]-pyrimidin-4-yl}-2-isobutyl-benzoic acid], the results for the half-maximal inhibitory concentration (IC50) against PTRGER4 (EP4) and at PTGER2 (EP2) were 483 nM and 15 nM, respectively.
In the case of `CCCSc1cc(-c2cc(NCCn3c(C)cc4c(C)ccc(Cl)c43)ncn2)ccc1C(=O)O` [compound 334, 4-{6-[2-(7-Chloro-2,4-dimethyl-indol-1-yl)-ethylamino]-pyrimidin-4-yl}-2-propylsulfanyl-benzoic acid], the half-maximal inhibitory concentration (IC50) on PTRGER4 (EP4) is 603 nM; at PTGER2 (EP2) it was 28 nM.
Regarding `CCCc1cc(-c2cc(NCCn3c(C)cc4cc(C)cc(Cl)c43)ncn2)cc(Cl)c1C(=O)O` [compound 335], the values for the half-inhibitory concentration (IC50) against PTRGER4 (EP4) and at PTGER2 (EP2) were 468 nM and 56 nM, respectively.
In the same order, the values of `Cc1ccc(F)c2c1cc(C)n2CCNc1cc(-c2ccc(C(=O)O)c(CC(C)C)c2)ncn1` [compound 336, 4-{6-[2-(7-Fluoro-2,4-dimethyl-indol-1-yl)-ethylamino]-pyrimidin-4-yl}-2-isobutyl-benzoic acid] are 199 nM and 46 nM.
For the compound `CCCc1cc(-c2cc(NCCn3c(C)cc4c(CC)ccc(F)c43)ncn2)ccc1C(=O)O` [compound 338], the half-inhibitory concentration (IC50) against PTRGER4 (EP4) came to 357 nM; at PTGER2 (EP2), 858 nM.
With `CSc1cc(-c2cc(NCCn3c(C)cc4c(F)c(F)cc(Cl)c43)ncn2)cc(Cl)c1C(=O)O` [compound 339, 2-Chloro-4-{6-[2-(7-chloro-4,5-difluoro-2-methyl-indol-1-yl)-ethylamino]-pyrimidin-4-yl}-6-methylsulfanyl-benzoic acid], the values for the IC50 against PTRGER4 (EP4) and on PTGER2 (EP2) were 989 nM and 5 nM, respectively.
The like results for `CCCc1cc(-c2cc(NCCn3c(C)cc4c(F)ccc(Cl)c43)ncn2)cc(F)c1C(=O)O` [compound 340, 4-{6-[2-(7-Chloro-4-fluoro-2-methyl-indol-1-yl)-ethylamino]-pyrimidin-4-yl}-2-fluoro-6-propyl-benzoic acid] were, in that order, 645 nM and 5 nM.
In the same order, the values of `CCSc1cc(-c2cc(NCCn3c(C)cc4c(C)c(F)cc(Cl)c43)ncn2)ccc1C(=O)O` [compound 341, 4-{6-[2-(7-Chloro-5-fluoro-2,4-dimethyl-indol-1-yl)-ethylamino]-pyrimidin-4-yl}-2-ethylsulfanyl-benzoic acid] are 396 nM and 42 nM.
The like results for `CCCc1cc(-c2cc(NCCn3c(C)cc4c(F)ccc(Cl)c43)ncn2)cc(Cl)c1C(=O)O` [compound 342, 2-Chloro-4-{6-[2-(7-chloro-4-fluoro-2-methyl-indol-1-yl)-ethylamino]-pyrimidin-4-yl}-6-propyl-benzoic acid] were, in that order, 621 nM and 5 nM.
Regarding `CCOc1cc(-c2cc(NCCn3c(C)cc4c(C)c(F)cc(Cl)c43)ncn2)ccc1C(=O)O` [compound 344, 4-{6-[2-(7-Chloro-5-fluoro-2,4-dimethyl-indol-1-yl)-ethylamino]-pyrimidin-4-yl}-2-ethoxy-benzoic acid], the IC50 was 319 nM at PTRGER4 (EP4) and 34 nM at PTGER2 (EP2).
Turning to `CCc1cc(-c2cc(NCCn3c(C)cc4c(OC)ccc(Cl)c43)ncn2)cc(Cl)c1C(=O)O` [compound 345], the half-maximal inhibitory concentration (IC50) on PTRGER4 (EP4) stood at 164 nM; against PTGER2 (EP2) it was 89 nM.
`CCc1cc(-c2cc(NCCn3c(C)cc4c(OC)ccc(F)c43)ncn2)cc(Cl)c1C(=O)O` [compound 346]: the IC50 against PTRGER4 (EP4) stood at 50 nM; on PTGER2 (EP2), 56 nM.
Consider `CCOc1cc(-c2cc(NCCn3c(C)cc4c(C)ccc(F)c43)ncn2)cc(C)c1C(=O)O` [compound 347, 2-Ethoxy-4-{6-[2-(7-fluoro-2,4-dimethyl-indol-1-yl)-ethylamino]-pyrimidin-4-yl}-6-methyl-benzoic acid], for which the figures for the IC50 against PTRGER4 (EP4) and against PTGER2 (EP2) were 239 nM and 11 nM, respectively.
In the same order, the values of `CCCc1cc(-c2cc(NCCn3c(C)cc4c(OC)ccc(F)c43)ncn2)ccc1C(=O)O` [compound 348, 4-{6-[2-(7-Fluoro-4-methoxy-2-methyl-indol-1-yl)-ethylamino]-pyrimidin-4-yl}-2-propyl-benzoic acid] are 76 nM and 5 nM.
As to `Cc1cc(Cl)cc2c1cc(C)n2CCNc1cc(-c2ccc(C(=O)O)c(OC(F)F)c2)ncn1` [compound 349, 4-{6-[2-(6-Chloro-2,4-dimethyl-indol-1-yl)-ethylamino]-pyrimidin-4-yl}-2-difluoromethoxy-benzoic acid], the half-maximal inhibitory concentration (IC50) amounted to 301 nM against PTRGER4 (EP4) and 26 nM on PTGER2 (EP2).
In the same order, the values of `CCOc1cc(-c2cc(NCCn3c(C)cc4c(F)c(F)cc(Cl)c43)ncn2)ccc1C(=O)O` [compound 350, 4-{6-[2-(7-Chloro-4,5-difluoro-2-methyl-indol-1-yl)-ethylamino]-pyrimidin-4-yl}-2-ethoxy-benzoic acid] are 993 nM and 6 nM.
